#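 Results reflect a 48-hour exposure of cells in 96-well plates to compound at five concentrations. Definition used: TGI = concentration required for complete inhibition of growth.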
# What was measured:
# Test in all cases: inhibition of tumour cell growth, NCI panel, 48 h
# OVCAR-4 ovarian = tested on: OVCAR-4 ovarian
# OVCAR-8 ovarian = tested on: OVCAR-8 ovarian
# SR leukemia = tested on: SR leukemia
# IGROV1 ovarian = tested on: IGROV1 ovarian
# MOLT-4 leukemia = tested on: MOLT-4 leukemia
# NCI-H522 lung = tested on: NCI-H522 lung
# MDA-MB-231 breast = tested on: MDA-MB-231 breast
# PC-3 prostate = tested on: PC-3 prostate
# T-47D breast = tested on: T-47D breast
# HS 578T breast = tested on: HS 578T breast
# TK-10 renal = tested on: TK-10 renal
# SF-295 CNS = tested on: SF-295 CNS
# UO-31 renal = tested on: UO-31 renal
# OVCAR-3 ovarian = tested on: OVCAR-3 ovarian
# NCI-H460 lung = tested on: NCI-H460 lung
# CAKI-1 renal = tested on: CAKI-1 renal
# RXF 393 renal = tested on: RXF 393 renal
# UACC-62 melanoma = tested on: UACC-62 melanoma
# NCI-H226 lung = tested on: NCI-H226 lung
# SF-539 CNS = tested on: SF-539 CNS
# SN12C renal = tested on: SN12C renal
# HCT-15 colon = tested on: HCT-15 colon
# M14 melanoma = tested on: M14 melanoma
# ACHN renal = tested on: ACHN renal
# LOX IMVI melanoma = tested on: LOX IMVI melanoma
# COLO 205 colon = tested on: COLO 205 colon
# KM12 colon = tested on: KM12 colon
# OVCAR-5 ovarian = tested on: OVCAR-5 ovarian
# UACC-257 melanoma = tested on: UACC-257 melanoma
# SK-MEL-2 melanoma = tested on: SK-MEL-2 melanoma
# NCI-H23 lung = tested on: NCI-H23 lung
# MDA-N = tested on: MDA-N
# HOP-92 NSCLC = tested on: HOP-92 NSCLC
# HOP-62 NSCLC = tested on: HOP-62 NSCLC
# HL-60(TB) leukemia = tested on: HL-60(TB) leukemia
# DU-145 prostate = tested on: DU-145 prostate
# SNB-75 CNS = tested on: SNB-75 CNS
# MDA-MB-435 = tested on: MDA-MB-435
# SNB-19 CNS = tested on: SNB-19 CNS
# HT29 colon = tested on: HT29 colon
# U251 CNS = tested on: U251 CNS
# MALME-3M melanoma = tested on: MALME-3M melanoma
# SK-MEL-5 melanoma = tested on: SK-MEL-5 melanoma
# SF-268 CNS = tested on: SF-268 CNS
# K-562 leukemia = tested on: K-562 leukemia
# 786-0 renal = tested on: 786-0 renal
# NCI/ADR-RES ovarian = tested on: NCI/ADR-RES ovarian
# A549 NSCLC = tested on: A549 NSCLC
# A498 renal = tested on: A498 renal
# CCRF-CEM leukemia = tested on: CCRF-CEM leukemia
# SK-MEL-28 melanoma = tested on: SK-MEL-28 melanoma
# RPMI-8226 leukemia = tested on: RPMI-8226 leukemia
# SW-620 colon = tested on: SW-620 colon
# HCT-116 colon = tested on: HCT-116 colon
# SK-OV-3 ovarian = tested on: SK-OV-3 ovarian
# MCF7 breast = tested on: MCF7 breast
# HCC-2998 colon = tested on: HCC-2998 colon
# EKVX NSCLC = tested on: EKVX NSCLC
smiles,measurement,setting,value
COc1cc(O)c2c(c1)OCC(Cc1ccc(O)cc1)C2=O (stereo unspecified),TGI,OVCAR-4 ovarian,> 100 µM
same,TGI,OVCAR-8 ovarian,> 100 µM
same,TGI,SR leukemia,> 100 µM
same,TGI,IGROV1 ovarian,> 100 µM
same,TGI,MOLT-4 leukemia,> 100 µM
same,TGI,NCI-H522 lung,> 100 µM
same,TGI,MDA-MB-231 breast,> 100 µM
same,TGI,PC-3 prostate,> 100 µM
same,TGI,T-47D breast,> 100 µM
same,TGI,HS 578T breast,> 100 µM
same,TGI,TK-10 renal,> 100 µM
same,TGI,SF-295 CNS,> 100 µM
same,TGI,UO-31 renal,> 100 µM
same,TGI,OVCAR-3 ovarian,> 100 µM
same,TGI,NCI-H460 lung,> 100 µM
same,TGI,CAKI-1 renal,> 100 µM
same,TGI,RXF 393 renal,> 100 µM
same,TGI,UACC-62 melanoma,> 100 µM
same,TGI,NCI-H226 lung,> 100 µM
same,TGI,SF-539 CNS,> 100 µM
same,TGI,SN12C renal,> 100 µM
same,TGI,HCT-15 colon,> 100 µM
same,TGI,M14 melanoma,> 100 µM
same,TGI,ACHN renal,> 100 µM
same,TGI,LOX IMVI melanoma,> 100 µM
same,TGI,COLO 205 colon,> 100 µM
same,TGI,KM12 colon,> 100 µM
same,TGI,OVCAR-5 ovarian,> 100 µM
same,TGI,UACC-257 melanoma,> 100 µM
same,TGI,SK-MEL-2 melanoma,> 100 µM
same,TGI,NCI-H23 lung,> 100 µM
same,TGI,MDA-N,> 100 µM
same,TGI,HOP-92 NSCLC,> 100 µM
same,TGI,HOP-62 NSCLC,> 100 µM
same,TGI,HL-60(TB) leukemia,> 100 µM
same,TGI,DU-145 prostate,> 100 µM
same,TGI,SNB-75 CNS,> 100 µM
same,TGI,MDA-MB-435,> 100 µM
same,TGI,SNB-19 CNS,> 100 µM
same,TGI,HT29 colon,> 100 µM
same,TGI,U251 CNS,> 100 µM
same,TGI,MALME-3M melanoma,> 100 µM
same,TGI,SK-MEL-5 melanoma,> 100 µM
same,TGI,SF-268 CNS,> 100 µM
same,TGI,K-562 leukemia,> 100 µM
same,TGI,786-0 renal,> 100 µM
same,TGI,NCI/ADR-RES ovarian,> 100 µM
same,TGI,A549 NSCLC,> 100 µM
same,TGI,A498 renal,> 100 µM
same,TGI,CCRF-CEM leukemia,> 100 µM
same,TGI,SK-MEL-28 melanoma,> 100 µM
same,TGI,RPMI-8226 leukemia,> 100 µM
same,TGI,SW-620 colon,> 100 µM
same,TGI,HCT-116 colon,> 100 µM
same,TGI,SK-OV-3 ovarian,> 100 µM
COC/C=C\[C@]1(O)CCCC[C@@H]1CC(OC)OC,TGI,OVCAR-4 ovarian,> 100 µM
same,TGI,OVCAR-8 ovarian,> 100 µM
same,TGI,SR leukemia,> 100 µM
same,TGI,IGROV1 ovarian,> 100 µM
same,TGI,MOLT-4 leukemia,91.2 µM
same,TGI,NCI-H522 lung,> 100 µM
same,TGI,MDA-MB-231 breast,> 100 µM
same,TGI,PC-3 prostate,> 100 µM
same,TGI,T-47D breast,> 100 µM
same,TGI,HS 578T breast,> 100 µM
same,TGI,TK-10 renal,> 100 µM
same,TGI,SF-295 CNS,> 100 µM
same,TGI,MCF7 breast,> 100 µM
same,TGI,UO-31 renal,> 100 µM
same,TGI,OVCAR-3 ovarian,> 100 µM
same,TGI,NCI-H460 lung,> 100 µM
same,TGI,CAKI-1 renal,> 100 µM
same,TGI,RXF 393 renal,> 100 µM
same,TGI,UACC-62 melanoma,> 100 µM
same,TGI,NCI-H226 lung,> 100 µM
same,TGI,SF-539 CNS,> 100 µM
same,TGI,HCT-15 colon,> 100 µM
same,TGI,M14 melanoma,> 100 µM
same,TGI,HCC-2998 colon,> 100 µM
same,TGI,ACHN renal,> 100 µM
same,TGI,LOX IMVI melanoma,> 100 µM
same,TGI,COLO 205 colon,> 100 µM
same,TGI,KM12 colon,> 100 µM
same,TGI,OVCAR-5 ovarian,> 100 µM
same,TGI,UACC-257 melanoma,> 100 µM
same,TGI,SK-MEL-2 melanoma,> 100 µM
same,TGI,NCI-H23 lung,> 100 µM
same,TGI,MDA-N,> 100 µM
same,TGI,HOP-92 NSCLC,> 100 µM
same,TGI,HOP-62 NSCLC,> 100 µM
same,TGI,HL-60(TB) leukemia,81.8 µM
same,TGI,DU-145 prostate,> 100 µM
same,TGI,SNB-75 CNS,> 100 µM
same,TGI,MDA-MB-435,> 100 µM
same,TGI,SNB-19 CNS,> 100 µM
same,TGI,HT29 colon,> 100 µM
same,TGI,U251 CNS,> 100 µM
same,TGI,MALME-3M melanoma,> 100 µM
same,TGI,SK-MEL-5 melanoma,> 100 µM
same,TGI,EKVX NSCLC,> 100 µM
same,TGI,SF-268 CNS,> 100 µM
same,TGI,K-562 leukemia,> 100 µM
same,TGI,786-0 renal,> 100 µM
same,TGI,NCI/ADR-RES ovarian,> 100 µM
same,TGI,A549 NSCLC,> 100 µM
same,TGI,A498 renal,> 100 µM
same,TGI,CCRF-CEM leukemia,> 100 µM
same,TGI,SK-MEL-28 melanoma,> 100 µM
same,TGI,RPMI-8226 leukemia,> 100 µM
same,TGI,SW-620 colon,> 100 µM
same,TGI,SK-OV-3 ovarian,> 100 µM

# Source: PubChem BioAssay (NCI)
